Measurements published in article PMC4613240, “A Series of New Ligustrazine-Triterpenes Derivatives as Anti-Tumor Agents: Design, Synthesis, and Biological Evaluation” (International Journal of Molecular Sciences, 2015).

How the values were obtained:
[1] = test system: MCF-7 (human breast cancer); assay: MTT cytotoxicity assay, MCF-7; format: cell-based; details: maximal tested concentration 20.0 μM
Protocol: (§1) The cytotoxicity of ligustrazine-triterpenes derivatives was evaluated on five tumor cell lines (Bel-7402, HepG2, HT-29, Hela, and MCF-7) using the standard MTT assay. In the study, the antineoplastic drug cisplatin (DDP) was selected as the positive control. The MDCK cell line was used to test the toxicity of the ligustrazine-triterpenes derivatives and DDP.
(§2) The cell lines Bel-7402 (human hepatocellular carcinoma), HepG2 (human hepatocellular carcinoma), HT-29 (human colon carcinoma), Hela (human cervical cancer), MCF-7 (human breast cancer) were included in this study. All these cell lines were provided by the Chinese Academy of Medical Sciences & Peking Union Medical College. Cultures were maintained as monolayers in RPMI 1640 supplemented with 10% (v/v) heat inactivated fetal bovine serum and 1% (v/v) enicillin/streptomycin (Thermo Technologies, New York, NY, USA) at 37 °C in a humidified atmosphere with 5% CO2. The ligustrazine derivatives under study were dissolved in DMSO (Sigma, St. Louis, MO, USA) and added at required concentrations to the cell culture. Cells incubated without the preparations served as the control.
(§3) The cytotoxicity of the compounds was evaluated on five cancer cell lines (Bel-7402, HepG2, HT-29, Hela, MCF-7) by the standard MTT assay. In short, exponentially growing cells were seeded into 96-well plates at a density 10^4 cells/mL. The plates were incubated at 37 °C in a humidified 5% CO2 atmosphere. Cells were allowed to adhere to the surface for 24 h and then treated with serial dilutions of the compounds for 72 h. Later, aliquots of [3-(4,5-dimethylthiazol-2-yl)-2,5-diphenyltetrazolium bromide] (MTT) solution (20 μL, 5 mg/mL) were added to each well and the incubation was continued for an additional 4 h. Then the supernatant medium was thrown away. The dark blue formazan crystals formed within the healthy cells were solubilized with DMSO (150 μL) and the absorbance was measured in a plate reader (BIORAD 550 spectrophotometer, Bio-rad Life Science Development Ltd., Beijing, China) at 490 nm. Wells containing no drugs were used as control group. The IC50 values were defined as the concentration of compounds that produced a 50% reduction of surviving cells and calculated using Logit-method. Tumor cell growth inhibitory rate was calculated in the following Equation (1): % inhibition = (1 − Sample group OD/Control group OD) × 100% (1)

[2] = test system: HepG2 cells; assay: Morphological observation using Giemsa staining; format: cell-based, human; details: HepG2, 2, 4, 8 μM for 72 h
Protocol: The morphological changes in HepG2 cells were examined by Giemsa staining. HepG2 cells were seeded in 6-well plates. The cell density was adjusted to 4 × 10^3/well and incubated overnight. After 72 h reaction with certain concentrations of 4a (2, 4, 8 μM), cells were washed with PBS and fixed with cold methanol for 10 min. Methanol was discarded and cells were air-dried. Then fixed cells were stained with 6% Giemsa (Giemsa, Molecular Probes/Invitrogen Life Technologies, Carlsbad, CA, USA) solution for 5 min, washed with water and dried. The cell morphological changes were observed and photographed under a light microscope.

[3] = test system: HepG2 cells; assay: Intracellular free Ca2+ detection (Fluo-3AM, flow cytometry); format: cell-based, human; details: 72 h, control MFI 4773
Protocol: A sustained increase in intracellular Ca^2+ concentrations is recognized as a factor for cell death or injury. The level of intracellular free Ca^2+ is examined by the fluorescent dye Fluo-3AM. The Fluo-3 AM is converted to Fluo-3 upon deacetylation within the cells, and Fluo-3 increases green fluorescence upon Ca^2+ binding. […] As the concentration of 4a increased from 5.0 to 6.0 to 7.0 μM, intracellular free Ca^2+ fluorescence increased dramatically (from 4800 to 5612 to 6955). It was in accordance with the tendencies of mitochondrial membrane potential and cell apoptosis.
The level of intracellular free Ca^2+ was examined by the fluorescent dye Fluo-3AM. HepG2 cells (1 × 10^5 cells/mL) in logarithmic growth phase were cultured in 6-well plates for 24 h at 37 °C in incubator with 5% CO2. After exposed to different concentrations of 4a (5, 6, 7 μM) for 72 h, cells were harvested and washed twice with cold PBS, then resuspended in HBSS buffer with 10 μM Fluo-3AM (Fluo-3AM, Shanghai Beyotime Biotech. Co., Ltd., Shanghai, China), and incubated for 30 min at 37 °C in the dark. Detection of intracellular Ca^2+ was carried out by the Flow Cytometer at 488 nm excitation wavelength.

[4] = test system: Hela (human cervical cancer); assay: MTT cytotoxicity assay, Hela; format: cell-based; details: 72 h, maximal tested concentration 20.0 μM
Protocol: as §1, §2, §3

[5] = test system: HepG2 (human hepatocellular carcinoma); assay: MTT cytotoxicity assay, HepG2; format: cell-based; details: for IC50: 72 h, maximal tested concentration 20.0 μM
Protocol: as §1, §2, §3

[6] = test system: Madin-Darby canine kidney cell line (MDCK); assay: MTT cytotoxicity (nephrotoxicity/selectivity) assay, MDCK; format: cell-based; details: Canis lupus familiaris
[7] = test system: HepG2 cells; assay: Apoptosis analysis by flow cytometry using Annexin V-FITC/PI staining; format: cell-based, human; details: 72 h, control 6%
Protocol: To substantiate the ability of 4a to induce apoptosis, further analysis was carried out using Annexin V-FITC/PI double staining technique in HepG2 cells. Cells stained with Annexin V-FITC and PI were classified as necrotic (Q1; Annexin^−/PI^+), late apoptotic (Q2; Annexin^+/PI^+), intact (Q3; Annexin^−/PI^−), or early apoptotic (Q4; Annexin^+/PI^−) cells. […] Even at the minimum concentration of 5 μM, 4a induced cell apoptosis at a ratio of 75.7% after 72 h of treatment.
The Annexin V-FITC/PI flow cytometric assay was performed to determine the early and late apoptosis in this assay according to the instruction of the manufacturer (Annexin V-FITC/PI, Beijing BioDee Biotech. Co., Ltd., Beijing, China). Briefly, HepG2 cells were treated with various concentrations of compound 4a (5, 6, 7 μM) for 72 h at 37 °C, then the treated cells were washed twice with cold PBS and centrifuged at 1000 rpm for 5 min. The harvested cells were resuspended in 200 μL binding buffer, containing 10 μL Annexin V-FITC. After 15 min, the cells were washed twice and resuspended in 300 μL binding buffer. At the same time, 10 μL PI was added. Then the cells were immediately analyzed with a flow cytometry.

[8] = test system: HT-29 (human colon carcinoma); assay: MTT cytotoxicity assay, HT-29; format: cell-based; details: maximal tested concentration 20.0 μM
Protocol: as §1, §2, §3

C=C(C)[C@@H]1CC[C@]2(C(=O)OCc3nc(C)c(C)nc3C)CC[C@]3(C)C(CCC4[C@@]5(C)CC[C@H](O)C(C)(C)C5CC[C@]43C)C12 (stereo partly drawn) [Compound 4a, 3β-Hydroxy-lup-20(29)-ene-28-oic acid-3,5,6-trimethylpyrazin-2-methyl ester]
IC50 ([1]; 72 h): 4.23 µM
IC50 ([1]; Homo sapiens, MCF7, 72 h): < 5.23 µM
cell morphology after Giemsa staining [2]: evident nuclear fragmentation, chromatin condensation in a dose dependent manner
intracellular free Ca2+ fluorescence (MFI), Fluo-3AM ([3]; HepG2, 5 μM): 4800
intracellular free Ca2+ fluorescence (MFI), Fluo-3AM ([3]; HepG2, 6 μM): 5612
intracellular free Ca2+ fluorescence (MFI), Fluo-3AM ([3]; HepG2, 7 μM): 6955
IC50 [4]: 4.34 µM
IC50 ([4]; Homo sapiens, HeLa): < 5.23 µM
IC50 [5]: 4.48 µM
inhibition at 10 µM ([5]; Homo sapiens, HepG2, 10 μM, read-out: inhibition rate against HepG2): 99.9%
IC50 ([5]; Homo sapiens, HepG2, 72 h): < 5.23 µM
inhibition at 10 µM ([6]; MDCK, 10 μM, read-out: inhibition rate against MDCK): ~26.5%
IC50 ([6]; maximal tested concentration 20.0 μM, toxicity to MDCK kidney cells): > 20 µM
apoptosis ratio (early and late apoptosis) ([7]; HepG2, 5 μM): 75.7%
apoptosis ratio (early and late apoptosis) ([7]; HepG2, 6 μM): 76.6%
apoptosis ratio (early and late apoptosis) ([7]; HepG2, 7 μM): 83.7%
IC50 ([8]; 72 h): 5.23 µM
IC50 ([8]; Homo sapiens, HT-29, 72 h): < 5.23 µM
